Experimental data: patent US9809623B2, “α4β7 peptide monomer and dimer antagonists” (Protagonist Therapeutics, Inc., priority 2014, dated 2017)
pIC50: −log10 of the molar value. Like-named read-outs stand apart in the source and are kept apart here. Numbered stars: 1 amine (or outer) side, 2 acyl side, 3 side chain; on linkers, the order of the positions; unused ones are H or OH. Bridge positions count the residues as written; N and C are the ends. Square brackets hold non-standard residues; d marks the D form. Peptide text beside a SMILES is read from it. I, II: the chains in the order shown. Phe(4-CF3) = N[C@@H](Cc1ccc(C(F)(F)F)cc1)C(=O)O; Phe(4-tBu) = CC(C)(C)c1ccc(C[C@H](N)C(=O)O)cc1; 2Nal = N[C@@H](Cc1ccc2ccccc2c1)C(=O)O; Diglycolyl = O=C(COCC(=O)[*:2])[*:1]; NMeR = CN[C@@H](CCCNC(=N)N)C(=O)O; NMeK = CN[C@@H](CCCCN)C(=O)O; Pen = CC(C)(S)[C@H](N)C(=O)O; dNMeK = CN[C@H](CCCCN)C(=O)O

How the values were obtained:
[1] = Simulated Intestinal Fluid (SIF) Stability Assay; type: in vitro ADME, porcine; settings: pig, pH 6.5, Table 3-B
Method: Studies were carried out in simulated intestinal fluid (SIF) to evaluate intestinal stability of the peptide molecules of the instant invention. To prepare the SIF reagent, blank FASSIF was prepared by dissolving 0.348 g NaOH, 3.954 g sodium phosphate monobasic monohydrate and 6.186 g NaCl in a final volume of 1 liter water (final pH=6.5). To this solution, 24 g porcine pancreatin (Sigma catalog P7545) was added and stirred for 30 minutes (final pancreatin concentration is 2.4%). The solution was filtered through a cheese cloth and a No. 1 Whatman filter, and 10 ml aliquots were stored at −70° C. To run the reaction, a 10 ml aliquot was thawed at 37° C., and 125 ul aliquots were removed and mixed with an equal volume of blank FASSIF. The peptide stock solution (10 mM in 100% DMSO) was diluted 75-fold in blank FASSIF. A 50 μl aliquot of the diluted peptide was combined with 125 μl pancreatin (2.4%) and 125 μl blank FASSIF to yield final concentrations of 1% pancreatin and 22 μM peptide. The reactions were incubated at 37° C., and at various time points 50 μl aliquots were removed and added to 200 μl of quench solution containing 50% acetonitrile, 50% methanol, 5% formic acid, and 1 μg/ml internal standard. The quenched samples were centrifuged at 10,000 rpm for 10 minutes, and the supernatants were analyzed by LCMS/MS. The percent remaining at each time point was calculated based on the peak area response ratio of test to compound to internal standard. Half-lives were calculated by fitting to a first-order exponential decay equation using GraphPad.

[2] = biological target: α4β7 (Homo sapiens, UniProt P13612+P26010); assay: α4β7-MAdCAM Cell Adhesion Assay (RPMI 8866 human cells); type: cell-based; set-up: host or cells: RPMI 8866 human B lymphoblastoid cells; settings: Table 3-B, Potency (α4β7); range classes; read-out: α4β7 cell (Hu) IC50
Summary of the method: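 Washed RPMI 8866 cells (200,000/well) in DMEM with 0.1% BSA, 10 mM HEPES pH 7, 1 mM MnCl2 adhered to rh MAdCAM-1/Fc-coated wells with serially diluted peptides, 30-45 min at 37 °C. After three washes, bound cells quantified by MTT, A570, cell-free background subtracted for dose response.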

[3] = simulated intestinal fluid (SIF) with porcine pancreatin, > means experiment was stopped at that time and half life was not reached, read-out: Stabilty SIF t1/2
[4] = simulated intestinal fluid (SIF) with porcine pancreatin, alone or in parentheses after >360, read-out: Stabilty SIF t1/2, in hr (converted)
[5] = simulated intestinal fluid (SIF) with 1% porcine pancreatin, > means experiment was stopped at that time and half life was not reached, read-out: Stabilty SIF t1/2

Sequence of α4β7 (P13612 34-1032): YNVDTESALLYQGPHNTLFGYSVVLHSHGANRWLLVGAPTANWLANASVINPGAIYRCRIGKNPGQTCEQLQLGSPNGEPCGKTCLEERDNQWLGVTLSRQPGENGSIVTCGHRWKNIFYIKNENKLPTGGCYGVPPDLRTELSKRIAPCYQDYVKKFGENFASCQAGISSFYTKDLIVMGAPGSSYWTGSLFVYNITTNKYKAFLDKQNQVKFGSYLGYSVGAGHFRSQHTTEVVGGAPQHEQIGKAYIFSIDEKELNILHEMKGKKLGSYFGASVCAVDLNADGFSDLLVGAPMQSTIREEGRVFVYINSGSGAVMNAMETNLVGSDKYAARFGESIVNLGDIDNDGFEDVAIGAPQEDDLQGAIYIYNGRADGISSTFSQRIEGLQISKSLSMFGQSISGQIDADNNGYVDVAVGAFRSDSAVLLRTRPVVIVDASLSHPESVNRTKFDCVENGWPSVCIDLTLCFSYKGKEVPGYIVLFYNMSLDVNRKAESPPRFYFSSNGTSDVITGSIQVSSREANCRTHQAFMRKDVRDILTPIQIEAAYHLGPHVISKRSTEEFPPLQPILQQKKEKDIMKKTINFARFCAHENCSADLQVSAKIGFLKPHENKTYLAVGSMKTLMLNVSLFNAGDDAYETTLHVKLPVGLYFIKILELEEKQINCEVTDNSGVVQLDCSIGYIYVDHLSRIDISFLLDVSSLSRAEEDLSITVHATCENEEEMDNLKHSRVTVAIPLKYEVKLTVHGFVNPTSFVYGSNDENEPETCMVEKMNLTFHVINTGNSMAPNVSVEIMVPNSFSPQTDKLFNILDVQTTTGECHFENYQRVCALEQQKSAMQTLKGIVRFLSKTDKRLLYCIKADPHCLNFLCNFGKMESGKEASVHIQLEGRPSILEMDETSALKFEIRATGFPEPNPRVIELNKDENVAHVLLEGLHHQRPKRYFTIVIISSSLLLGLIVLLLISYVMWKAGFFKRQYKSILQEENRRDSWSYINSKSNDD
Sequence of α4β7 (P26010 20-798): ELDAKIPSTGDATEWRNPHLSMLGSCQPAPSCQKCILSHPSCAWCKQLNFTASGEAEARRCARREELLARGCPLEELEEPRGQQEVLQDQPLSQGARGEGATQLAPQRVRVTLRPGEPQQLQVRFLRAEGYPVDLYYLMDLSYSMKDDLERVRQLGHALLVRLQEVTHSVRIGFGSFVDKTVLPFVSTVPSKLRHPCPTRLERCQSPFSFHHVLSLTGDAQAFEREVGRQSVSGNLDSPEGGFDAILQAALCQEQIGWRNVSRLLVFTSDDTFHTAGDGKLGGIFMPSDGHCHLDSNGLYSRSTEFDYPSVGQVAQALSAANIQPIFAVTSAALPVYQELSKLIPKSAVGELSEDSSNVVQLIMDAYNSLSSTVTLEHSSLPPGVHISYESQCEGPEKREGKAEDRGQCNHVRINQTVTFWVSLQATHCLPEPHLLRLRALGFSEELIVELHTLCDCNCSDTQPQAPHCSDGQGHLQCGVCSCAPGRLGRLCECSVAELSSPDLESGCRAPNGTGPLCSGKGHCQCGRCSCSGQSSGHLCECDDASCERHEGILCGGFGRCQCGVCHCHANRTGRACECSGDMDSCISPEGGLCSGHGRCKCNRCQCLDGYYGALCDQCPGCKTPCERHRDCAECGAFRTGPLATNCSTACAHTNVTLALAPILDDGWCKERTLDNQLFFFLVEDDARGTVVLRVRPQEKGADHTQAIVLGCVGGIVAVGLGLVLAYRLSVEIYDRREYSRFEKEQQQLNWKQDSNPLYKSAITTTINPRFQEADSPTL

`CC(=O)N[C@@H]1C(=O)N(C)[C@@H](CCCNC(=N)N)C(=O)N[C@@H](CO)C(=O)N[C@@H](CC(=O)O)C(=O)N[C@@H]([C@@H](C)O)C(=O)N[C@@H](CC(C)C)C(=O)N[C@H](C(=O)N[C@@H](Cc2ccc(C(C)(C)C)cc2)C(=O)N[C@@H](CCC(=O)O)C(=O)N(C)[C@@H](CCCCNC(=O)COCC(=O)NCCCC[C@@H](C(N)=O)N(C)C(=O)[C@H](CCC(=O)O)NC(=O)[C@H](Cc2ccc(C(C)(C)C)cc2)NC(=O)[C@H]2NC(=O)[C@H](CC(C)C)NC(=O)[C@H]([C@@H](C)O)NC(=O)[C@H](CC(=O)O)NC(=O)[C@H](CO)NC(=O)[C@H](CCCNC(=N)N)N(C)C(=O)[C@@H](NC(C)=O)C(C)(C)SSC2(C)C)C(N)=O)C(C)(C)SSC1(C)C` [compound 133] (I: Ac-[Pen][NMeR]SDTL[Pen][Phe(4-tBu)]E[NMeK]-NH2 / II: Ac-[Pen][NMeR]SDTL[Pen][Phe(4-tBu)]E[NMeK]-NH2; disulfide I:1-I:7, II:1-II:7; linker I:10-II:10 via Diglycolyl) showed a half-life at 22 μM [1, 3] greater than 6 h and a half-life at 22 μM [1, 4] of 11 h.

`CC(=O)N[C@@H]1C(=O)N(C)[C@@H](CCCNC(=N)N)C(=O)N[C@@H](CO)C(=O)N[C@@H](CC(=O)O)C(=O)N[C@@H]([C@@H](C)O)C(=O)N[C@@H](CC(C)C)C(=O)N[C@H](C(=O)N[C@@H](Cc2ccc(C(C)(C)C)cc2)C(=O)N[C@@H](CCC(=O)O)CC(=O)N[C@H](CCCCNC(=O)CN(CC(=O)NCCCC[C@@H](NC(=O)C[C@H](CCC(=O)O)NC(=O)[C@H](Cc2ccc(C(C)(C)C)cc2)NC(=O)[C@H]2NC(=O)[C@H](CC(C)C)NC(=O)[C@H]([C@@H](C)O)NC(=O)[C@H](CC(=O)O)NC(=O)[C@H](CO)NC(=O)[C@H](CCCNC(=N)N)N(C)C(=O)[C@@H](NC(C)=O)C(C)(C)SSC2(C)C)C(N)=O)C(=O)CCNC(=O)CCCCCC2(C)C(=CC=CC=CC3=[N+](CCCS(=O)(=O)[O-])c4ccc(S(=O)(=O)O)cc4C3(C)C)N(CCCS(=O)(=O)O)c3ccc(S(=O)(=O)O)cc32)C(N)=O)C(C)(C)SSC1(C)C` (single isomer, unassigned) [compound 183] showed a half-life at 22 μM [1, 3] greater than 3 h and a half-life at 22 μM ([1]; simulated intestinal fluid (SIF) with porcine pancreatin, in parentheses after >180, read-out: Stabilty SIF t1/2, value in parentheses) of 7.77 h.

Molecule `CC(=O)N[C@@H]1C(=O)N(C)[C@@H](CCCNC(=N)N)C(=O)N[C@@H](CO)C(=O)N[C@@H](CC(=O)O)C(=O)N[C@@H]([C@@H](C)O)C(=O)N[C@@H](CC(C)C)C(=O)N[C@H](C(=O)N[C@@H](Cc2ccc3ccccc3c2)C(=O)N[C@H](CCC(=O)O)C(=O)N(C)[C@H](CCCCNC(=O)COCC(=O)NCCCC[C@H](C(N)=O)N(C)C(=O)[C@@H](CCC(=O)O)NC(=O)[C@H](Cc2ccc3ccccc3c2)NC(=O)[C@H]2NC(=O)[C@H](CC(C)C)NC(=O)[C@H]([C@@H](C)O)NC(=O)[C@H](CC(=O)O)NC(=O)[C@H](CO)NC(=O)[C@H](CCCNC(=N)N)N(C)C(=O)[C@@H](NC(C)=O)C(C)(C)SSC2(C)C)C(N)=O)C(C)(C)SSC1(C)C` [compound 39] (I: Ac-[Pen][NMeR]SDTL[Pen][2Nal][dE][dNMeK]-NH2 / II: Ac-[Pen][NMeR]SDTL[Pen][2Nal][dE][dNMeK]-NH2; disulfide I:1-I:7, II:1-II:7; linker I:10-II:10 via Diglycolyl) has a half-life at 22 μM [1, 5] greater than 3 h and a pIC50 [2] of 7.60 to 8.00.

Work on `CC(=O)N[C@H](CCCCN)C(=O)N[C@H]1CSSC[C@@H](C(=O)N[C@@H](Cc2c[nH]c3ccccc23)C(=O)N[C@H](CCCCNC(=O)COCC(=O)NCCCC[C@@H](NC(=O)[C@H](Cc2c[nH]c3ccccc23)NC(=O)[C@@H]2CSSC[C@H](NC(=O)[C@@H](CCCCN)NC(C)=O)C(=O)N(C)[C@@H](CCCNC(=N)N)C(=O)N[C@@H](CO)C(=O)N[C@@H](CC(=O)O)C(=O)N[C@@H]([C@@H](C)O)C(=O)N[C@@H](CC(C)C)C(=O)N2)C(N)=O)C(N)=O)NC(=O)[C@H](CC(C)C)NC(=O)[C@H]([C@@H](C)O)NC(=O)[C@H](CC(=O)O)NC(=O)[C@H](CO)NC(=O)[C@H](CCCNC(=N)N)N(C)C1=O` [compound 4] (I: Ac-[dK]C[NMeR]SDTLCW[dK]-NH2 / II: Ac-[dK]C[NMeR]SDTLCW[dK]-NH2; disulfide I:2-I:8, II:2-II:8; linker I:10-II:10 via Diglycolyl) yielded a half-life at 22 μM [1, 5] of less than 0.333 h and a pIC50 [2] of 7.60 to 8.00.

In the case of `CC(=O)N[C@@H]1CCCCNC(=O)COCC(=O)NCCCC[C@@H](NC(C)=O)C(=O)N[C@H]2CSSC[C@H](NC(=O)[C@H](CC(C)C)NC(=O)[C@H]([C@@H](C)O)NC(=O)[C@H](CC(=O)O)NC(=O)[C@H](CO)NC(=O)[C@H](CCCNC(=N)N)N(C)C2=O)C(=O)N[C@@H](Cc2c[nH]c3ccccc23)C(=O)N[C@@H](C(N)=O)CCCCNC(=O)COCC(=O)NCCCC[C@H](C(N)=O)NC(=O)[C@H](Cc2c[nH]c3ccccc23)NC(=O)[C@@H]2CSSC[C@H](NC1=O)C(=O)N(C)[C@@H](CCCNC(=N)N)C(=O)N[C@@H](CO)C(=O)N[C@@H](CC(=O)O)C(=O)N[C@@H]([C@@H](C)O)C(=O)N[C@@H](CC(C)C)C(=O)N2` [compound 5] (I: Ac-[dK]C[NMeR]SDTLCW[dK]-NH2 / II: Ac-[dK]C[NMeR]SDTLCW[dK]-NH2; linker I:1-II:1, I:10-II:10 via Diglycolyl; disulfide I:2-I:8, II:2-II:8), the half-life at 22 μM [1, 3] was 0.1 h.

Molecule `CC(=O)N[C@@H]1C(=O)N(C)[C@@H](CCCNC(=N)N)C(=O)N[C@@H](CO)C(=O)N[C@@H](CC(=O)O)C(=O)N[C@@H]([C@@H](C)O)C(=O)N[C@@H](CC(C)C)C(=O)N[C@H](C(=O)N[C@@H](Cc2ccc(C(F)(F)F)cc2)C(=O)N[C@H](CCC(=O)O)C(=O)N[C@H](CCCCNC(=O)COCC(=O)NCCCC[C@@H](NC(=O)[C@@H](CCC(=O)O)NC(=O)[C@H](Cc2ccc(C(F)(F)F)cc2)NC(=O)[C@H]2NC(=O)[C@H](CC(C)C)NC(=O)[C@H]([C@@H](C)O)NC(=O)[C@H](CC(=O)O)NC(=O)[C@H](CO)NC(=O)[C@H](CCCNC(=N)N)N(C)C(=O)[C@@H](NC(C)=O)C(C)(C)SSC2(C)C)C(N)=O)C(N)=O)C(C)(C)SSC1(C)C` [compound 3] (I: Ac-[Pen][NMeR]SDTL[Pen][Phe(4-CF3)][dE][dK]-NH2 / II: Ac-[Pen][NMeR]SDTL[Pen][Phe(4-CF3)][dE][dK]-NH2; disulfide I:1-I:7, II:1-II:7; linker I:10-II:10 via Diglycolyl) has a half-life at 22 μM [1, 3] greater than 3 h.

`CC(=O)N[C@@H]1C(=O)N(C)[C@@H](CCCNC(=N)N)C(=O)N[C@@H](CO)C(=O)N[C@@H](CC(=O)O)C(=O)N[C@@H]([C@@H](C)O)C(=O)N[C@@H](CC(C)C)C(=O)N[C@H](C(=O)N[C@@H](Cc2ccc(C(C)(C)C)cc2)C(=O)N[C@@H](CCC(=O)O)CC(=O)N[C@H](CCCCNC(=O)CN(CC(=O)NCCCC[C@@H](NC(=O)C[C@H](CCC(=O)O)NC(=O)[C@H](Cc2ccc(C(C)(C)C)cc2)NC(=O)[C@H]2NC(=O)[C@H](CC(C)C)NC(=O)[C@H]([C@@H](C)O)NC(=O)[C@H](CC(=O)O)NC(=O)[C@H](CO)NC(=O)[C@H](CCCNC(=N)N)N(C)C(=O)[C@@H](NC(C)=O)C(C)(C)SSC2(C)C)C(N)=O)C(=O)CCNC(=O)c2ccc(-c3c4ccc(=N)c(S(=O)(=O)O)c-4oc4c(S(=O)(=O)O)c(N)ccc34)c(C(=O)O)c2)C(N)=O)C(C)(C)SSC1(C)C` [compound 182] showed a half-life at 22 μM [1, 3] greater than 3 h.

For `CC(=O)N[C@@H]1C(=O)N(C)[C@@H](CCCNC(=N)N)C(=O)N[C@@H](CO)C(=O)N[C@@H](CC(=O)O)C(=O)N[C@@H]([C@@H](C)O)C(=O)N[C@@H](CC(C)C)C(=O)N[C@H](C(=O)N[C@@H](Cc2ccc(C(C)(C)C)cc2)C(=O)N[C@@H](CCC(=O)O)C(=O)N[C@H](CCCCNC(=O)COCC(=O)NCCCC[C@@H](NC(=O)[C@H](CCC(=O)O)NC(=O)[C@H](Cc2ccc(C(C)(C)C)cc2)NC(=O)[C@H]2NC(=O)[C@H](CC(C)C)NC(=O)[C@H]([C@@H](C)O)NC(=O)[C@H](CC(=O)O)NC(=O)[C@H](CO)NC(=O)[C@H](CCCNC(=N)N)N(C)C(=O)[C@@H](NC(C)=O)C(C)(C)SSC2(C)C)C(N)=O)C(N)=O)C(C)(C)SSC1(C)C` [compound 131] (I: Ac-[Pen][NMeR]SDTL[Pen][Phe(4-tBu)]E[dK]-NH2 / II: Ac-[Pen][NMeR]SDTL[Pen][Phe(4-tBu)]E[dK]-NH2; disulfide I:1-I:7, II:1-II:7; linker I:10-II:10 via Diglycolyl), the half-life at 22 μM [1, 3] was greater than 6 h and the half-life at 22 μM [1, 4] was 9 h.
